Measured values taken from patent US20100028259A1, “USE OF ORGANIC CATION TRANSPORTERS FOR CANCER DIAGNOSIS AND THERAPY” (The Regents of the University of California, priority 2006, published 2010).
Like-named read-outs stand apart in the source and are kept apart here.

Tests used:
DLD = test: MTT drug sensitivity, colon cancer cell line DLD; type: cell-based, human
Protocol: (§1) Cytotoxicity of the platinum-based compounds was measured by MTT (thiazolyl blue tetrazolium bromide) assay. Cells were seeded in 100 μl of the culture medium without any antibiotics in 96-well plates at a predetermined cell density. For HEK 293 cells, poly-D-lysine coated plates were used. […] For the OCT inhibitor studies, the inhibitors (i.e., disopyramide or cimetidine) were added to the medium at a specified concentration immediately before the addition of the platinum-based compounds. After incubation for a specified time period, the drug-containing medium was replaced with fresh, drug-free medium and the incubation was continued for a total of 72 hours (start from the addition of platinum-based compounds). Then, the MTT assay was performed similarly as described in Alley et al., Cancer Res., 48:589-601 (1988). […] The maximal cell growth was the cell growth in the medium without any platinum-based compounds; C is the concentration of the platinum-based compound, and γ is the slope factor.
(§2) The cell seeding density was 6,000-, 8,000-, 6,000-, 15,000-12,000- and 4,000 cells/well for HCT116, HT29, RKO, SW620, LS180, and DLD cells, respectively. When cimetidine (1.5 mM) was used, it was added to the wells immediately before the addition of the platinum-based drugs. The resistance factor (RF) was defined as the ratio of the mean IC50 value in the presence to that in the absence of cimetidine. Data are expressed as mean±SD from six measurements, and each measurement was performed in quadruplicate.

HEK-MOCK cells = test: MTT drug sensitivity assay in HEK-MOCK cells (control of HEK-hOCT3); type: cell-based, human; conditions: Table 3
Protocol: (§3) Cytotoxicity of the platinum-based compounds was measured by MTT (thiazolyl blue tetrazolium bromide) assay. Cells were seeded in 100 μl of the culture medium without any antibiotics in 96-well plates at a predetermined cell density. For HEK 293 cells, poly-D-lysine coated plates were used. After overnight incubation, the platinum-based compounds were then added to the culture medium to give the indicated final concentrations. For the OCT inhibitor studies, the inhibitors (i.e., disopyramide or cimetidine) were added to the medium at a specified concentration immediately before the addition of the platinum-based compounds. After incubation for a specified time period, the drug-containing medium was replaced with fresh, drug-free medium and the incubation was continued for a total of 72 hours (start from the addition of platinum-based compounds). Then, the MTT assay was performed similarly as described in Alley et al., Cancer Res., 48:589-601 (1988). […] The maximal cell growth was the cell growth in the medium without any platinum-based compounds; C is the concentration of the platinum-based compound, and γ is the slope factor.
(§4) Briefly, the cells were seeded in 96-well plates at a density of 5,000 cells/well for the transfected MDCK cells or 12,000 cells/well for the transfected HEK 293 cells. The platinum-based drugs were added on the following day. After the specified time periods of drug exposure, the drug-containing medium was replaced with fresh, drug-free medium, and the incubation was continued for a total of 72 hours (start from the time when the drug was added). After incubation, the cell growth was determined by an MTT assay. Data are expressed as mean±SD from 3 to 6 independent experiments with each performed in quadruplicate. The resistance factor (RF) was defined as the ratio of the mean IC50 value in the MOCK cells to that in the OCT-transfected cells.

MDCK-MOCK cells = test: MTT drug sensitivity assay in MDCK-MOCK cells; type: cell-based, canine
Protocol: as §3, §4
Briefly, MDCK cells were seeded at a density of 5,000 cells/well in 96-well plates and exposed to the test compounds for 7 hours on the following day. After incubation for a total of 72 hours, the cell growth was determined by an MTT assay. The data for carboplatin was taken from Table 1 and was not determined simultaneously with the other compounds. The resistance factor (RF) was defined as the ratio of the mean IC50 value in MDCK-MOCK cells to that in MDCK-hOCT1 cells. Data are expressed as mean±SD from six measurements, and each measurement was performed in quadruplicate.

MDCK-hOCT1 cells = test: Cellular accumulation of platinum in MDCK-hOCT1 cells (ICP-MS); type: in vitro ADME, canine; conditions: 2-hr exposure
Protocol: For the inhibitor studies, the incubation medium also contained disopyramide (150 μM). […] For the inhibitor studies, the incubation medium also contained cimetidine (1.5 mM). […] After drug exposure, the cells were washed with ice-cold PBS three times and harvested by scraping and centrifugation. The cell-associated platinum was determined by ICP-MS and normalized for protein content. Data are expressed as mean±SD from a single experiment performed in triplicate. Experiments were replicated for OCT1 and OCT2, and similar results were obtained.
The cellular accumulation of platinum was determined as described in Holzer et al., Mol. Pharmacol., 66:817-823 (2004) with some modifications. Briefly, the cells were grown in 100 mm×20 mm dishes in the culture medium without any antibiotics to over 90% confluence. For HEK 293 cells, poly-D-lysine coated dishes were used. For platinum accumulation, the cells were incubated in the culture medium containing the indicated concentrations of the platinum compounds at 37° C. in 5% CO2 for 2 hr unless specified. After incubation, the dishes were immediately placed on ice and the cells were washed with 6 ml of ice-cold PBS for three times and collected with a rubber policeman. The cell pellets were obtained by centrifugation at 400×g and at 4° C. for 15 min. For the OCT inhibitor studies, the incubation medium also contained the indicated inhibitor (i.e., disopyramide or cimetidine) in addition to the platinum-based compounds. The resulting cell pellets were then dissolved into 200 μl of 70% nitric acid at 65° C. for at least 2.5 hours, and then distilled water containing 10 ppb of iridium (Sigma) and 0.1% Triton X-100 was added to the samples to dilute nitric acid to 7%. The platinum content was measured by inductively plasma coupled mass spectrometry (ICP-MS) in the Analytical Facility at the University of California at Santa Cruz (Santa Cruz, Calif.). Cell lysates from a set of identical cultures were used for BCA protein assay.

HCT116 = test: MTT drug sensitivity, colon cancer cell line HCT116; type: cell-based, human
Protocol: as §1, §2

HEK-hOCT2 cells = test: MTT drug sensitivity assay in HEK-hOCT2 cells; type: cell-based, human
Protocol: as §1, §4

HT29 = test: MTT drug sensitivity, colon cancer cell line HT29; type: cell-based, human
Protocol: as §1, §2

## O=C1[O][Pt]2([NH][C@@H]3CCCC[C@H]3[NH]2)[O]C1=O [oxaliplatin]
DLD; absence of cimetidine, read-out: IC50 Control
  IC50: 10.6 ± 5.99 µM
DLD; cimetidine 1.5 mM, read-out: IC50 Cimetidine-treated
  IC50: 71.3 ± 12.9 µM
HEK-MOCK cells; drug exposure 7 hour
  IC50: 1.47 ± 0.28 µM
HEK-MOCK cells; drug exposure 24 hour
  IC50: 0.47 ± 0.05 µM
HEK-MOCK cells; drug exposure 72 hour
  IC50: 0.47 ± 0.12 µM
MDCK-MOCK cells; SAR study Table 4, 7 hours of drug exposure, read-out: IC50 MDCK-MOCK
  IC50: 10.9 ± 3.66 µM
MDCK-MOCK cells; co-incubation with disopyramide 150 μM, read-out: IC50 in MDCK-MOCK, disopyramide-treated
  IC50: 32.2 ± 13 µM
MDCK-MOCK cells; disopyramide study (FIG. 2D), without disopyramide, read-out: IC50 in MDCK-MOCK, control
  IC50: 30.4 ± 9.28 µM
MDCK-MOCK cells; drug exposure 7 hour, MTT at 72 hours, Table 1, read-out: IC50 MDCK-MOCK
  IC50: 33 ± 9.12 µM
MDCK-MOCK cells; drug exposure 24 hour, MTT at 72 hours, Table 1, read-out: IC50 MDCK-MOCK
  IC50: 14.3 ± 5.55 µM
MDCK-MOCK cells; drug exposure 72 hour, Table 1, read-out: IC50 MDCK-MOCK
  IC50: 9.64 ± 1.85 µM
MDCK-hOCT1 cells; 3 μM, disopyramide 150 μM
  cellular platinum accumulation rate in MDCK-hOCT1, disopyramide-treated: 4.04±0.04 pmol/mg protein-hr
MDCK-hOCT1 cells; drug 3 μM
  cellular platinum accumulation rate in MDCK-hOCT1: 8.53±0.52 pmol/mg protein-hr
MDCK-hOCT1 cells; disopyramide 150 μM
  effect of disopyramide on platinum accumulation rate in MDCK-hOCT1: two-fold decrease
HCT116; HCT116, absence of cimetidine, read-out: IC50 Control
  IC50: 2.37 ± 1.44 µM
HCT116; HCT116, cimetidine 1.5 mM, read-out: IC50 Cimetidine-treated
  IC50: 18.8 ± 6.19 µM
HEK-hOCT2 cells; co-incubation with cimetidine 1.5 mM, read-out: IC50 in HEK-hOCT2, cimetidine-treated
  IC50: 2.81 ± 1.63 µM
HEK-hOCT2 cells; drug exposure 7 hour, read-out: IC50 HEK-hOCT2
  IC50: 0.039 ± 0.025 µM
HEK-hOCT2 cells; drug exposure 24 hour, read-out: IC50 HEK-hOCT2
  IC50: 0.02 ± 0.001 µM
HEK-hOCT2 cells; drug exposure 72 hour, read-out: IC50 HEK-hOCT2
  IC50: 0.019 ± 0.004 µM
HT29; HT29, absence of cimetidine, read-out: IC50 Control
  IC50: 4.56 ± 1.4 µM
HT29; HT29, cimetidine 1.5 mM, read-out: IC50 Cimetidine-treated
  IC50: 52.1 ± 18.5 µM
